pIC50: −log10 of the molar value.

In this assay the test system is human colon tumour cell line HT29. Kind of assay: Cellular Assay (phosphohistone H3 Ser10 mitotic marker, HT29). The format is cell-based. The conditions noted are these: HT-29, 24 h, HT29 cells, read-out: IC50 (cellular assay, phosphohistone H3).
Protocol: Chromosome condensation in mitosis is accompanied by phosphorylation of histone H3 on serine 10.
After 24 hours, cells were fixed in 3.7% (v/v) formaldehyde then permeabilised and blocked for 10 minutes in 100 μl 0.5% (v/v) Triton X-100, 1% (w/v) bovine serum albumin (BSA) in phosphate buffered saline (PBS). […] The raw assay data were analysed by non-linear regression analysis and used to determine an IC50 value for each compound.
As for `CN1C(=O)C2(CC2)CN(C2CCCC2)c2nc(Nc3cc(F)c(C(=O)NC4CCC(N(C)C)CC4)cc3Cl)ncc21` (centres unmarked) [Example 394, 5-chloro-4-(9′-cyclopentyl-5′-methyl-6′-oxo-5′,6′,8′,9′-tetrahydrospiro[cyclopropane-1,7′-pyrimido[5,4-b][1,4]diazepine]-2′-ylamino)-N-(4-dimethylaminocyclohexyl)-2-fluoro-benzamide], the negative-log IC50 (pIC50) (commonly −log10 of the IC50, conventionally taken in molar units) was over 6.52. For `CCN1CCC(NC(=O)c2cc(F)c(Nc3ncc4c(n3)N(C3CCCC3)CC3(CC3)C(=O)N4C)cc2F)CC1` [Example 395, 4-(9′-cyclopentyl-5′-methyl-6′-oxo-5′,6′,8′,9′-tetrahydrospiro[cyclopropane-1,7′-pyrimido[5,4-b][1,4]diazepine]-2′-ylamino)-N-(1-ethyl-4-piperidyl)-2,5-difluoro-benzamide], the pIC50 was over 6.52. For the molecule `CN1CCC(NC(=O)c2cc(F)c(Nc3ncc4c(n3)N(C3CCCC3)CC3(CC3)C(=O)N4C)cc2F)CC1` [Example 396, 4-(9′-cyclopentyl-5′-methyl-6′-oxo-5′,6′,8′,9′-tetrahydrospiro[cyclopropane-1,7′-pyrimido[5,4-b][1,4]diazepine]-2′-ylamino)-2,5-difluoro-N-(1-methyl-4-piperidyl)benzamide], the pIC50 is over 6.52. In the case of `CN1C(=O)C2(CC2)CN(C2CCCC2)c2nc(Nc3cc(F)c(C(=O)NCCN4CCCC4)cc3F)ncc21` [Example 397, 4-(9′-cyclopentyl-5′-methyl-6′-oxo-5′,6′,8′,9′-tetrahydrospiro[cyclopropane-1,7′-pyrimido[5,4-b][1,4]diazepine]-2′-ylamino)-2,5-difluoro-N-(2-pyrrolidin-1-ylethyl)benzamide], the negative-log IC50 (pIC50) was over 6.52. With `COc1cc(C(=O)NCCN2CCCC2)c(F)cc1Nc1ncc2c(n1)N(C1CCCC1)CC1(CC1)C(=O)N2C` [Example 398, 4-(9′-cyclopentyl-5′-methyl-6′-oxo-5′,6′,8′,9′-tetrahydrospiro[cyclopropane-1,7′-pyrimido[5,4-b][1,4]diazepine]-2′-ylamino)-2-fluoro-5-methoxy-N-(2-pyrrolidin-1-ylethyl)benzamide], the pIC50 was over 6.52. Regarding `COc1cc(C(=O)N[C@@H]2CCN(C)C2)c(F)cc1Nc1ncc2c(n1)N(C1CCCC1)CC1(CC1)C(=O)N2C` [Example 399, 4-(9′-cyclopentyl-5′-methyl-6′-oxo-5′,6′,8′,9′-tetrahydrospiro[cyclopropane-1,7′-pyrimido[5,4-b][1,4]diazepine]-2′-ylamino)-2-fluoro-5-methoxy-N-[(3R)-1-methylpyrrolidin-3-yl]benzamide], the pIC50 is over 6.52. Consider `CN1CC[C@@H](NC(=O)c2cc(F)c(Nc3ncc4c(n3)N(C3CCCC3)CC3(CC3)C(=O)N4C)cc2F)C1` [Example 400, 4-(9′-cyclopentyl-5′-methyl-6′-oxo-5′,6′,8′,9′-tetrahydrospiro[cyclopropane-1,7′-pyrimido[5,4-b][1,4]diazepine]-2′-ylamino)-2,5-difluoro-N-[(3R)-1-methylpyrrolidin-3-yl]benzamide], for which the negative logarithm of the IC50 (pIC50) was over 6.52. For the molecule `COc1cc(C(=O)NCC(C)(C)CN2CCCC2)ccc1Nc1ncc2c(n1)N(C1CCCC1)CC1(CC1)C(=O)N2C` [Example 401, 4-(9′-cyclopentyl-5′-methyl-6′-oxo-5′,6′,8′,9′-tetrahydrospiro[cyclopropane-1,7′-pyrimido[5,4-b][1,4]diazepine]-2′-ylamino)-N-(2,2-dimethyl-3-pyrrolidin-1-yl-propyl)-3-methoxy-benzamide], the pIC50 is over 6.52.

For the molecule `CN1C(=O)C2(CC2)CN(C2CCCC2)c2nc(Nc3ccc(C(=O)NC4C[C@H]5CCC[C@@H](C4)N5C)cc3Cl)ncc21` (stereo partly drawn) [Example 402, 3-chloro-4-(9′-cyclopentyl-5′-methyl-6′-oxo-5′,6′,8′,9′-tetrahydrospiro[cyclopropane-1,7′-pyrimido[5,4-b][1,4]diazepine]-2′-ylamino)-N-[(1S,5R)-9-methyl-9-azabicyclo[3.3.1]non-7-yl]benzamide], the pIC50 is over 6.52. As for `COc1cc(C(=O)NC2C[C@H]3CCC[C@@H](C2)N3C)c(F)cc1Nc1ncc2c(n1)N(C1CCCC1)CC1(CC1)C(=O)N2C` (stereo partly drawn) [Example 404, 4-(9′-cyclopentyl-5′-methyl-6′-oxo-5′,6′,8′,9′-tetrahydrospiro[cyclopropane-1,7′-pyrimido[5,4-b][1,4]diazepine]-2′-ylamino)-2-fluoro-5-methoxy-N-[(1S,5R)-9-methyl-9-azabicyclo[3.3.1]non-3-yl]benzamide], the pIC50 is over 6.52. Consider `COc1cc(C(=O)NCC2(CN3CCCC3)CC2)c(F)cc1Nc1ncc2c(n1)N(C1CCCC1)CC1(CC1)C(=O)N2C` [Example 405, 4-(9′-cyclopentyl-5′-methyl-6′-oxo-5′,6′,8′,9′-tetrahydrospiro[cyclopropane-1,7′-pyrimido[5,4-b][1,4]diazepine]-2′-ylamino)-2-fluoro-5-methoxy-N-[[1-(pyrrolidin-1-ylmethyl)cyclopropyl]methyl]benzamide], for which the pIC50 was over 6.00. Under `CCN1CCC(NC(=O)c2ccc(Nc3ncc4c(n3)N(C3CCCC3)CC3(CC3)C(=O)N4C)c(F)c2)CC1` [Example 406, 4-(9′-cyclopentyl-5′-methyl-6′-oxo-5′,6′,8′,9′-tetrahydrospiro[cyclopropane-1,7′-pyrimido[5,4-b][1,4]diazepine]-2′-ylamino)-N-(1-ethyl-4-piperidyl)-3-fluoro-benzamide] stands over 6.52; under `CCN1CCC(NC(=O)c2cc(OC)c(Nc3ncc4c(n3)N(C3CCCC3)CC3(CC3)C(=O)N4C)cc2F)CC1` [Example 407, 4-(9′-cyclopentyl-5′-methyl-6′-oxo-5′,6′,8′,9′-tetrahydrospiro[cyclopropane-1,7′-pyrimido[5,4-b][1,4]diazepine]-2′-ylamino)-N-(1-ethyl-4-piperidyl)-2-fluoro-5-methoxy-benzamide], over 6.52. The value for `CN1CCC(NC(=O)c2ccc(Nc3ncc4c(n3)N(C3CCCC3)CC3(CC3)C(=O)N4C)c3c2OCO3)CC1` [Example 408, 7-(9′-cyclopentyl-5′-methyl-6′-oxo-5′,6′,8′,9′-tetrahydrospiro[cyclopropane-1,7′-pyrimido[5,4-b][1,4]diazepine]-2′-ylamino)-N-(1-methyl-4-piperidyl)benzo[1,3]dioxole-4-carboxamide] was over 6.52; that for `COc1cc(C(=O)NC2CCN(C)CC2)ccc1Nc1ncc2c(n1)N(C1CCCC1)CC1(CCCC1)C(=O)N2C` [Example 409, 4-(9′-cyclopentyl-5′-methyl-6′-oxo-5′,6′,8′,9′-tetrahydrospiro[cyclopentane-1,7′-pyrimido[5,4-b][1,4]diazepine]-2′-ylamino)-3-methoxy-N-(1-methylpiperidin-4-yl)benzamide] was over 6.52. In the case of `CN1CCC(NC(=O)c2cc(F)c(Nc3ncc4c(n3)N(C3CCCCC3)CCC(=O)N4C)cc2Cl)CC1` [Example 411, 2-chloro-4-[(2-cyclohexyl-6-methyl-5-oxo-2,6,9,11-tetrazabicyclo[5.4.0]undeca-7,9,11-trien-10-yl)amino]-5-fluoro-N-(1-methyl-4-piperidyl)benzamide], the negative logarithm of the IC50 (pIC50) was over 6.00.

On to `CN1CCC(NC(=O)c2cc(F)c(Nc3ncc4c(n3)N(C3CCCCC3)CCC(=O)N4C)cc2F)CC1` [Example 412, 4-[(2-cyclohexyl-6-methyl-5-oxo-2,6,9,11-tetrazabicyclo[5.4.0]undeca-7,9,11-trien-10-yl)amino]-2,5-difluoro-N-(1-methyl-4-piperidyl)benzamide], for which the pIC50 is over 6.52.
